Measurements published in patent EP2803317B1, “MRI METHOD FOR MEASURING DIFFUSION PARAMETERS OF TRACER IN LIVING ORGAN TISSUE SPACE AND EXTRACELLULAR SPACE” (Peking University Third Hospital, priority 2012, dated 2013).

Assays:
[1] = MRI tracer method: distribution volume and macro clearance of Gd-DTPA in the skeletal muscle gap; assay type: in vivo; conditions: rat skeletal muscle gap
Description: (§1) Calculation method about distribution volume (Vd), distribution volume fraction and general clearance of the tracer in the living organism is as follows: reconstructing the registered and subtracted images into axial images; quantitative measuring the signal increment region in image of each layer via the Matlab program as shown in figures; and recording the number of pixels in the increment region and the signal intensity value of each pixel. According to the integral principle, we can obtain the distribution volumes (Vd) of the tracer (Gd-DTPA) from different times in the brain hemisphere ECS via adding up the increment region of each layer. The distribution volume fraction of Gd-DTPA in the brain hemisphere ECS can be obtained by dividing the Vd from different times by the volume of the brain hemisphere of the rat. The macro clearance is defined as the total signal intensity at a previous time subtracting the total signal intensity at a later time, then dividing the initial total signal intensity.
(§2) Although the above invention is for the brain ECS of the SD rat, the present invention is applicable to other the living organisms. […] The left high signal region adjacent to the femur is the Gd-DTPA's diffusion region after injection.

[2] = MRI tracer method: distribution volume, distribution volume fraction and macro clearance of Gd-DTPA in the glioma brain; assay type: in vivo; conditions: glioma brain of the rat
Description: as §1
Using the same method as used in the brain ECS, we can learn the time-varying change rule of distribution volume of the Gd-DTPA in the glioma brain of the rat. Table 9: the time-varying change rule of distribution volume of the Gd-DTPA in the glioma brain of the rat

[3] = MRI tracer method: diffusion parameters of Gd-DTPA in the glioma brain; assay type: in vivo; conditions: glioma brain of the rat
Description: Table 8: the diffusion parameter of Gd-DTPA in the glioma brain of the rat

[4] = MRI tracer method: diffusion parameters of Gd-DTPA in the skeletal muscle gap; assay type: in vivo; conditions: rat skeletal muscle gap
Description: as §2

[5] = MRI tracer method: distribution volume, distribution volume fraction and macro clearance of Gd-DTPA in brain hemisphere ECS after injection in caudate nucleus; assay type: in vivo, SD rats; conditions: for Macro clearance: injection to the caudate nucleus of eight SD rats; for Distribution Volume Fraction: rat brain hemisphere; for Distribution Volume Fraction / Distribution Volume (Vd): after injection in caudate nucleus; for Distribution Volume (Vd): rat brain
Experimental: (§3) A method for computing the physiological parameter in the living organism will be illustrated with the following embodiment. In the embodiment, Gadolinium-diethylenetriaminepentaacetic acid (Gd-DTPA) which is Mag-nevist solution produced by Bayer Schering Pharma AG was used as the tracer. The corresponding MRI signal intensities of the tracer with the actual concentration in agarose gel and rat brain were measured. Male Sprague Dawley rats weighing 250-300g were used in the experiment. The living organism used for measurement is the rat brain. A Siemens Magnetom Trio 3.0 T MRI system was used to obtain the rat brain images.
(§4) In this embodiment, the position of the injection site Q and the depth of Gd-DTPA microinjection of the rat brains were determined by three-dimensional reconstructed image basing on the brain stereotaxic atlas. The specific method was: preparing skin, shaving between the eyes of rats about 4cm skin backwards along the midline of the skull and exposing the skull plate; then fixing the rats in a stereotactic apparatus and administrating the drug at the injection site Q using magnetic drug delivery system; rubbing off the skull plate at the entry point with an electric drill, setting a micro syringe into the brain and manually administrating 2µLGd-DTPA solution with the concentration of 10mM into the target location in three injection with the interval of 5min. The syringe was left for 10 min in the brain when drug injection was finished before the micro syringe was exited and the skin was sutured. Scanned images were taken in 15min, 30min, 1h, 2h, 3h, 4h, 6h, 9h and 12h and imaging parameters were set as the mentioned above.
as §1
The selected region in the FIG. is obtained by subtracting the image before increment from the increment image. The increment region is shown as the "bright region" and the other un-increment region is shown as the "dark region". […] Using the bulleted method above can measure the Vd, the distribution volume fraction and the macro clearance of the caudate nucleus.

[6] = MRI tracer method: diffusion parameters of Gd-DTPA in brain ECS of SD rats, fitted from time-series MRI images; assay type: in vivo; conditions: for λ: tortuosity
Experimental: as §3, §4
As shown in the FIG., the bias field is first to be correct to eliminate the signal strength deviation among the sequence of images; the image registration technique is then used to unify the position of the increment images with the referenced images; the diffusion model is finally solved via the distribution of the tracer concentration from different times obtained by the analysis of the signal strength increment.
Although the tortuosity varies in different directions and remains unchanged in the same direction in equation (5), the real tortuosity probably varies in the same direction. The space variability of the tortuosity should be determined to accurately describe the real diffusion process. The tortuosity of a point (x, y, z) in space is: λ = λ(x, y, z) [formula] or written in a polar coordinates: λ = λ(r, θ, φ) [formula] the diffusion model is changed to: (∂C)/(∂t) = (D)/(λ((x, y, z))^2)(∇)^2 C−(Q)/(α)−k′C [formula]
Although equation (10) fully considers the space variability of the tortuosity, the solution of equation (8) is difficult to get. The equation (8) is a partial differential formula with variable coefficients and usually has no analytic solution. The continuous problem can be turned into a discrete problem to solve the equation (10): ΔSI(t+Δt)−ΔSI(t) = (D)/(λ((x, y, z))^2)(∇)^2 (ΔSI) + (Q)/(α)k−k′ΔSI(t) + k′b [formula] wherein, Δt is the sampling time in each unit, [formula] Δi represents the space distance of sampling along the axis i. It depends on the space resolution of the image along the axis i.
For the discrete equation (11), the space tortuosity λ, the loss ratio k' and the part volume ratio α can be fit by the least squares method, i.e. the solution of the below optimization problem is required: [formula]
Write the equation (12) in a matrix form and get: min f(λ,α,k′) = ‖Ax−b‖2^2 [formula] wherein, the nonvanishing element in the line (x, y, z, t,:) of the matrix A is : ((∂)^2 ΔSI)/((∂)^2 r) + k−ΔSI + b [formula] the line (x, y, Z, t,) of the known vector b is: b(x,y,z,t,:) = ΔSI(t+Δt)−ΔSI(t) [formula] the substitution variable x is: x = ([(D)/(λ((x, y, z))^2),(Q)/(α),k′])^T [formula] […]

[7] = SD rat brain, caudate putamen (CPu), Gd-DTPA 2µL, 10mM microinjection
[8] = SD rat brain, medial prefrontal cortex (mPFC), Gd-DTPA 2µL, 10mM microinjection
[9] = SD rat brain, occipital cortex (Oc), Gd-DTPA 2µL, 10mM microinjection
[10] = SD rat brain, substantianigra (SN), Gd-DTPA 2µL, 10mM microinjection
[11] = SD rat brain, thalamus (T), Gd-DTPA 2µL, 10mM microinjection
[12] = rats' caudate nucleus region, anisotropic, direction -X
[13] = rats' caudate nucleus region, anisotropic, direction -Y
[14] = rats' caudate nucleus region, anisotropic, direction -Z
[15] = rats' caudate nucleus region, anisotropic, direction X
[16] = rats' caudate nucleus region, anisotropic, direction Z

O=C([O-])CN(CCN(CC(=O)[O-])CC(=O)O)CCN(CC(=O)[O-])CC(=O)O.[Gd+3] [Gd-DTPA, Gadolinium-diethylenetriaminepentaacetic acid]
Vd ([1]; time 5 min): 407 mm^3
Vd ([1]; time 10 min): 383 mm^3
Vd ([1]; time 15 min): 234 mm^3
Vd ([1]; time 25 min): 0 mm^3
Macro clearance ([1]; time(h) 5-10): 0.28 h⁻¹
Macro clearance ([1]; time(h) 10-15): 0.36 h⁻¹
Macro clearance ([1]; time(h) 15-25): 0.36 h⁻¹
Macro clearances ([2]; time 0.5-1 h): 0.23 h⁻¹
Macro clearances ([2]; time 1-2 h): 0.36 h⁻¹
Macro clearances ([2]; time 2-3 h): 0.41 h⁻¹
Distribution Volume Fraction ([2]; time 0.25 h): 4.85%
Vd ([2]; time 0.25 h): 466 mm^3
Distribution Volume Fraction ([2]; time 0.5 h): 6.78%
Vd ([2]; time 0.5 h): 651 mm^3
Distribution Volume Fraction ([2]; time 1 h): 7.50%
Vd ([2]; time 1 h): 720 mm^3
Distribution Volume Fraction ([2]; time 2 h): 5.24%
Vd ([2]; time 2 h): 503 mm^3
Distribution Volume Fraction ([2]; time 3 h): 0%
Vd ([2]; time 3 h): 0 mm^3
k' ([3]; direction -X): 3.31 ×10^-4/mM·L^-1·s^-1
k' ([3]; direction -Y): 3.12 ×10^-4/mM·L^-1·s^-1
k' ([3]; direction -Z): 3.05 ×10^-4/mM·L^-1·s^-1
k' ([3]; direction X): 3.13 ×10^-4/mM·L^-1·s^-1
k' ([3]; direction Z): 3.15 ×10^-4/mM·L^-1·s^-1
D^∗ ([4]; direction -X): 2.611 ×10^-4/mm^2·s^-1
k' ([4]; direction -X): 2.359 ×10^-4/mM·L^-1·s^-1
D^∗ ([4]; direction -Y): 8.235 ×10^-4/mm^2·s^-1
k' ([4]; direction -Y): 10.940 ×10^-4/mM·L^-1·s^-1
D^∗ ([4]; direction -Z): 7.154 ×10^-4/mm^2·s^-1
k' ([4]; direction -Z): 5.083 ×10^-4/mM·L^-1·s^-1
D^∗ ([4]; direction X): 2.930 ×10^-4/mm^2·s^-1
k' ([4]; direction X): 2.870 ×10^-4/mM·L^-1·s^-1
D^∗ ([4]; direction Z): 9.537 ×10^-4/mm^2·s^-1
k' ([4]; direction Z): 7.817 ×10^-4/mM·L^-1·s^-1
Macro clearance ([5]; time 1-2 h): 0.23 h⁻¹
Macro clearance ([5]; time 2-3 h): 0.12 h⁻¹
Macro clearance ([5]; time 3-4 h): 0.19 h⁻¹
Macro clearance ([5]; time 4-6 h): 0.11 h⁻¹
Macro clearance ([5]; time 6-9 h): 0.06 h⁻¹
Macro clearance ([5]; time 9-12 h): 0.08 h⁻¹
Distribution Volume Fraction ([5]; time 1 h): 7.55%
Distribution Volume Fraction ([5]; time 2 h): 9.48%
Distribution Volume Fraction ([5]; time 3 h): 9.45%
Distribution Volume Fraction ([5]; time 4 h): 8.20%
Distribution Volume Fraction ([5]; time 6 h): 6.96%
Distribution Volume Fraction ([5]; time 9 h): 4.29%
Distribution Volume Fraction ([5]; time 12 h): 1.33%
Distribution Volume (Vd) ([5]; time 1 h): 724.75 mm^3
Distribution Volume (Vd) ([5]; time 2 h): 910.50 mm^3
Distribution Volume (Vd) ([5]; time 3 h): 907.25 mm^3
Distribution Volume (Vd) ([5]; time 4 h): 787.57 mm^3
Distribution Volume (Vd) ([5]; time 6 h): 668.50 mm^3
Distribution Volume (Vd) ([5]; time 9 h): 411.57 mm^3
Distribution Volume (Vd) ([5]; time 12 h): 128.13 mm^3
D^∗ [6, 7]: 3.38 ×10^-4/mm^2·s^-1
k' [6, 7]: 0.76 ×^10-4/mM· L^-1· s^-1
D^∗ [6, 8]: 2.31 ×10^-4/mm^2·s^-1
k' [6, 8]: 2.38 ×^10-4/mM· L^-1· s^-1
D^∗ [6, 9]: 3.25 ×10^-4/mm^2·s^-1
k' [6, 9]: 1.55 ×^10-4/mM· L^-1· s^-1
D^∗ [6, 10]: 2.06 ×10^-4/mm^2·s^-1
k' [6, 10]: 8.28 ×^10-4/mM· L^-1· s^-1
D^∗ [6, 11]: 3.28 ×10^-4/mm^2·s^-1
k' [6, 11]: 1.44 ×^10-4/mM· L^-1· s^-1
D^∗ [6, 12]: 3.57 ± 0.88 ×10^-4/mm^2·s^-1
k' [6, 12]: 7.14 ± 3.06 ×10^-5/mM·L^-1·s^-1
D^∗ [6, 13]: 3.05 ± 0.93 ×10^-4/mm^2·s^-1
k' [6, 13]: 7.59 ± 4.04 ×10^-5/mM·L^-1·s^-1
D^∗ [6, 14]: 4.01 ± 0.60 ×10^-4/mm^2·s^-1
k' [6, 14]: 7.88 ± 6.24 ×10^-5/mM·L^-1·s^-1
D^∗ [6, 15]: 3.73 ± 1.10 ×10^-4/mm^2·s^-1
k' [6, 15]: 7.67 ± 3.96 ×10^-5/mM·L^-1·s^-1
D^∗ [6, 16]: 2.54 ± 1.27 ×10^-4/mm^2·s^-1
k' [6, 16]: 7.74 ± 4.07 ×10^-5/mM·L^-1·s^-1
λ ([6]; SD rat brain, caudate putamen (CPu)): 1.24
λ ([6]; SD rat brain, medial prefrontal cortex (mPFC)): 1.50
λ ([6]; SD rat brain, occipital cortex (Oc)): 1.26
λ ([6]; SD rat brain, substantianigra (SN)): 1.59
λ ([6]; SD rat brain, thalamus (T)): 1.26
